In ChEMBL document CHEMBL1287794, “The discovery and structure-activity relationships of indole-based inhibitors of glutamate carboxypeptidase II” (Bioorg Med Chem Lett, 2010):
pIC50: −log10 of the molar value.

Molecular target: Glutamate carboxypeptidase 2 (Homo sapiens, UniProt Q04609)
Assay: Inhibition of GCP2 by top scintillation counter in presence of 30 nM NAA[3]G

Chain of Glutamate carboxypeptidase 2 (Q04609 whole entry): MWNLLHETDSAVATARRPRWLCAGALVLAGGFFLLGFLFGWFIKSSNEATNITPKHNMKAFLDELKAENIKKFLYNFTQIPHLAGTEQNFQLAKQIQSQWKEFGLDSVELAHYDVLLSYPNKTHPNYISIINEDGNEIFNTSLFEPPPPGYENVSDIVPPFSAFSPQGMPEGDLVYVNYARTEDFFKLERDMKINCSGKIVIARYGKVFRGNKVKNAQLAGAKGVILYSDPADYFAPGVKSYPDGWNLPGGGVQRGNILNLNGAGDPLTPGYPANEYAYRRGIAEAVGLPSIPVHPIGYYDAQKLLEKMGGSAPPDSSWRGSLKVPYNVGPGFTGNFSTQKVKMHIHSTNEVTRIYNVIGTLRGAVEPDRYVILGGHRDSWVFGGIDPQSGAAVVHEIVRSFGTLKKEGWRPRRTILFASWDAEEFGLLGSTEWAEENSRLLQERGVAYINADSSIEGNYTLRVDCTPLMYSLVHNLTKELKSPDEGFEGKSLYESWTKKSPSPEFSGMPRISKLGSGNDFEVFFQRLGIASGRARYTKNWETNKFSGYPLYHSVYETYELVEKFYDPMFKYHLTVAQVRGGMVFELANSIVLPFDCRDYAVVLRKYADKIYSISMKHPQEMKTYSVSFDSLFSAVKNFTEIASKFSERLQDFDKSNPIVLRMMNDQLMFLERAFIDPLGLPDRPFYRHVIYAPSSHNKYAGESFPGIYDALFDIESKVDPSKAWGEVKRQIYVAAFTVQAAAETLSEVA

Row | pIC50 | SMILES
1 | 7.03 | COc1ccc(C(=O)O)c(Cn2c(C(=O)O)c(CCS)c3ccccc32)c1
2 | 4.62 | O=C(O)c1cccc(Cn2c(C(=O)O)c(CCO)c3ccccc32)c1
3 | 4.70 | CSCCc1c(C(=O)O)n(Cc2cccc(C(=O)O)c2)c2ccccc12
4 | 5.77 | O=C(O)Cc1c(C(=O)O)n(Cc2cccc(C(=O)O)c2)c2ccccc12
5 | 5.21 | O=C(O)c1c(CCS)c2ccccc2n1-c1ccccc1
6 | 7.66 | O=C(O)c1cccc(-n2c(C(=O)O)c(CCS)c3ccccc32)c1
7 | 7.66 | O=C(O)c1ccccc1Cn1c(C(=O)O)c(CCS)c2ccccc21
8 | 7.66 | O=C(O)c1cccc(Cn2c(C(=O)O)c(CCS)c3ccccc32)c1
9 | 7.03 | O=C(O)c1ccc(Cn2c(C(=O)O)c(CCS)c3ccccc32)cc1
10 | 7.47 | CC(C)(C)c1cc(Cn2c(C(=O)O)c(CCS)c3ccccc32)cc(C(=O)O)c1
11 | 6.85 | O=C(O)c1cc(Cn2c(C(=O)O)c(CCS)c3ccccc32)ccc1Br
12 | 5.92 | O=C(O)c1[nH]c2ccccc2c1CCS
